Results reported in patent US11192891B2, “Diazaspiro ROCK inhibitors” (BRISTOL-MYERS SQUIBB COMPANY, priority 2017, dated 2021).
Where a name gives a salt, the structure may show the parent alone.

Key:
ROCK2 = ROCK2 (Homo sapiens, UniProt O75116); experiment: ROCK kinase inhibition assay, FITC peptide substrate, LABCHIP 3000 readout; type: biochemical; conditions: 5 μM ATP, 1.5 μM peptide substrate
Procedure, shortened: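 Tested across a concentration range, with percent inhibition of kinase activity derived per concentration. Peptide phosphorylation, initiated by adding the Rho kinase variant (final DMSO <2%), was quenched with EDTA and substrate/product resolved by mobility shift.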

Dahl salt-sensitive rats = conditions: cited from earlier work
neointimal formation = conditions: rats; cited from earlier work
[1] = system: rat models of hypertension; conditions: cited from earlier work
rat stroke model = conditions: cited from earlier work
[2] = system: IL-1 beta-induced coronary stenosis; conditions: long term treatment, porcine model; cited from earlier work

Chain of ROCK2 (O75116 whole entry, species assumed): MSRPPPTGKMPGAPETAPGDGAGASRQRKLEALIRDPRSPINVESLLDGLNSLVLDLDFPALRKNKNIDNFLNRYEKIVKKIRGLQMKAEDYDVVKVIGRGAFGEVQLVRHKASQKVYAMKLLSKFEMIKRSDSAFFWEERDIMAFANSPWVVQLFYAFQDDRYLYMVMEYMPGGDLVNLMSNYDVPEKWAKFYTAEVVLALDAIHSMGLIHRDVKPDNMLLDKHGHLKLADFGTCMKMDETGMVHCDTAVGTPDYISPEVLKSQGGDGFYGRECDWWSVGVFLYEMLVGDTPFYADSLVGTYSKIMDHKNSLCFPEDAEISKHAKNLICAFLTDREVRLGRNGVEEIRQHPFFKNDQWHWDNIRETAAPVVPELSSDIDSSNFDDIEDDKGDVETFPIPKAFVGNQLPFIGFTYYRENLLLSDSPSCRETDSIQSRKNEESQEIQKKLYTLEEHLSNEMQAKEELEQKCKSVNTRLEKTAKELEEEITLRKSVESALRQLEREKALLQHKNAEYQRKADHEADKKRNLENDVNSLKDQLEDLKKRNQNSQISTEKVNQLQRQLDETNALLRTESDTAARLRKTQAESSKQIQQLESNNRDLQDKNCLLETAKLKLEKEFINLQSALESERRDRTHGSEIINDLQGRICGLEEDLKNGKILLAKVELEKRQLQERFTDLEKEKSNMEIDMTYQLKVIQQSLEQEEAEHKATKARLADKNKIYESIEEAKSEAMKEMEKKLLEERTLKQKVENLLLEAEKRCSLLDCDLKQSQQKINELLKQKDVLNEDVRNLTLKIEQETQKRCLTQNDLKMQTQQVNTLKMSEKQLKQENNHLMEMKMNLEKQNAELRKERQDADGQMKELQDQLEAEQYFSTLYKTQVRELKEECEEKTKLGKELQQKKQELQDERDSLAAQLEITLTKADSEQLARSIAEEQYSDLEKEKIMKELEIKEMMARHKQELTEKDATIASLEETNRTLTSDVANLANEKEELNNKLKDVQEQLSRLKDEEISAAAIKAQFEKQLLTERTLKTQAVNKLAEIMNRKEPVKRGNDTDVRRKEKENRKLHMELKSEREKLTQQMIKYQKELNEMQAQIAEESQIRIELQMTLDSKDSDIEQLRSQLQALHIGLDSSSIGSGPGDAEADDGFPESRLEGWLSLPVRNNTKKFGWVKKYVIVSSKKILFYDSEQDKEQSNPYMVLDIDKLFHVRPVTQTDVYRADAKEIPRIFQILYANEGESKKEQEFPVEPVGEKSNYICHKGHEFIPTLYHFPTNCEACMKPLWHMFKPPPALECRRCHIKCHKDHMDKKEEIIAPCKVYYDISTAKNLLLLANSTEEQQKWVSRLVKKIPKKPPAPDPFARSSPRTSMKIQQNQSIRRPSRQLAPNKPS

IC50 (ROCK2) [nM] | SMILES | also measured
1.6 | COc1cc(N2CCC3(CCN(C(=O)c4ccc(N5CCN(CCC(C)C)CC5)cc4)CC3)C2=O)ccc1-c1cn[nH]c1 [Example 238, 2-[3-methoxy-4-(1H-pyrazol-4-yl)phenyl]-8-{4-[4-(3-methylbutyl)piperazin-1-yl]benzoyl}-2,8-diazaspiro[4.5]decan-1-one] | –
0.6 | COc1cc(N2CCC3(CCN(C(=O)c4ccc(N5CCN(CCc6ccccc6)CC5)cc4)CC3)C2=O)ccc1-c1cn[nH]c1 [Example 239, 2-[3-methoxy-4-(1H-pyrazol-4-yl)phenyl]-8-{4-[4-(2-phenylethyl)piperazin-1-yl]benzoyl}-2,8-diazaspiro[4.5]decan-1-one] | –
1 | COc1cc(N2CCC3(CCN(C(=O)c4ccc(N5CCN(CCC(F)(F)F)CC5)cc4)CC3)C2=O)ccc1-c1cn[nH]c1 [Example 240, 2-[3-methoxy-4-(1H-pyrazol-4-yl)phenyl]-8-{4-[4-(3,3,3-trifluoropropyl)piperazin-1-yl]benzoyl}-2,8-diazaspiro[4.5]decan-1-one] | –
0.4 | COc1cc(N2CCC3(CCN(C(=O)c4ccc(N5CCN(CC(C)(C)C)CC5)cc4)CC3)C2=O)ccc1-c1cn[nH]c1 [Example 241, 8-{4-[4-(2,2-dimethylpropyl)piperazin-1-yl]benzoyl}-2-[3-methoxy-4-(1H-pyrazol-4-yl)phenyl]-2,8-diazaspiro[4.5]decan-1-one] | –
0.7 | COc1cc(N2CCC3(CCN(C(=O)c4ccc(N5CCN(C(C)CO)CC5)cc4)CC3)C2=O)ccc1-c1cn[nH]c1 (centres unmarked) [Example 242, 8-{4-[4-(1-hydroxypropan-2-yl)piperazin-1-yl]benzoyl}-2-[3-methoxy-4-(1H-pyrazol-4-yl)phenyl]-2,8-diazaspiro[4.5]decan-1-one] | –
1 | COc1cc(N2CCC3(CCN(C(=O)c4ccc(N5CCN(Cc6cccnc6)CC5)cc4)CC3)C2=O)ccc1-c1cn[nH]c1 [Example 243, 2-[3-methoxy-4-(1H-pyrazol-4-yl)phenyl]-8-(4-{4-[(pyridin-3-yl)methyl]piperazin-1-yl}benzoyl)-2,8-diazaspiro[4.5]decan-1-one] | –
0.9 | COc1cc(N2CCC3(CCN(C(=O)c4ccc(N5CCN(C6CCN(C)CC6)CC5)cc4)CC3)C2=O)ccc1-c1cn[nH]c1 [Example 244, 2-[3-methoxy-4-(1H-pyrazol-4-yl)phenyl]-8-{4-[4-(1-methylpiperidin-4-yl)piperazin-1-yl]benzoyl}-2,8-diazaspiro[4.5]decan-1-one] | –
0.1 | COc1cc(N2CCC3(CCN(C(=O)c4ccc(N5CCN(Cc6ccc(N(C)C)cc6)CC5)cc4)CC3)C2=O)ccc1-c1cn[nH]c1 [Example 245, 8-[4-(4-{[4-(dimethylamino)phenyl]methyl}piperazin-1-yl)benzoyl]-2-[3-methoxy-4-(1H-pyrazol-4-yl)phenyl]-2,8-diazaspiro[4.5]decan-1-one] | –
0.7 | COc1cc(N2CCC3(CCN(C(=O)c4ccc(N5CCN(CC6CCOC6)CC5)cc4)CC3)C2=O)ccc1-c1cn[nH]c1 (centres unmarked) [Example 246, 2-[3-methoxy-4-(1H-pyrazol-4-yl)phenyl]-8-(4-{4-[(oxolan-3-yl)methyl]piperazin-1-yl}benzoyl)-2,8-diazaspiro[4.5]decan-1-one] | –
– | C[C@@H](N)[C@H]1CC[C@H](C(=O)Nc2ccncc2)CC1 [Example Y-27632] | ventricular hypertrophy, fibrosis and function (Dahl salt-sensitive rats): improve ventricular hypertrophy, fibrosis and function; neointimal formation (neointimal formation): inhibited neointimal formation; effect on blood pressure in control rats ([1]; control rats): only a minor effect on blood pressure; effect on blood pressure in hypertensive rats ([1]; spontaneously hypertensive, renal hypertensive and deoxycortisone acetate salt hypertensive rat models): significantly decrease blood pressure
1010 | O=C1N(c2ccc(-c3cn[nH]c3)cc2)CCC12CCNCC2 [Intermediate 3, 2-(4-(1H-pyrazol-4-yl)phenyl)-2,8-diazaspiro[4.5]decan-1-one, TFA] | –
– | O=S(=O)(c1cccc2cnccc12)N1CCCNCC1 [fasudil] | infarct size and neurologic deficit (rat stroke model): reduce both the infarct size and neurologic deficit; coronary constrictive remodeling [2]: promote a regression of coronary constrictive remodeling; coronary stenosis [2]: progressively reduce coronary stenosis
